Results on 2 molecules are retold here after patent US7888527B2 (University of Virginia Patent Foundation, priority 2004, dated 2011).

Data set [1] has as its target T1, human S1P3 receptor (Homo sapiens, UniProt Q99500). The experiment in a line: Intracellular calcium mobilization, T24 cells transfected stably with human S1P3 receptor. The class given is cell-based. Details: expressed in transfected cells. The following applies: T24-S1P3 cells versus wild-type T24 cells. The procedure:
[…] monolayers are co-transfected with the human S1P1, S1P2, S1P3 receptor encoding DNAs and the pIRESpuro2 plasmid DNA (Clontech, San Jose, Calif.,) using either Lipofectamine 2000 (Invitrogen, Carlsbad, Calif.) or FuGENE 6 (Roche Applied Science, Indianapolis, Ind.). Clonal populations expressing the puromycin acetyltransferase gene are selected by addition of puromycin (Sigma-Aldrich, St. Louis, Mo.) to the culture media. T24 cells are grown in monolayers at 37° C. in a 5% CO2/95% air atmosphere in growth media consisting of: 95% DMEM/F-12 medium and 10% charcoal/dextran stripped FBS.
A FlexStation™ fluorimeter (Molecular Devices, Menlo Park, Calif.) was used to measure intracellular calcium in native T24 cells and T24 cells transfected stably with either human S1P2 or human S1P3 receptor DNA. Cells were seeded (˜50,000 cells/well) in 96-well, clear bottom black microplates (Corning Costar Corp.) and left overnight at 37° C. The cells were dye-loaded with 4 μM Fluo-4AM ester in a loading buffer (Hank's Balanced Salt Solution, […], containing 20 mM HEPES, 0.1% fatty acid free BSA, and 2.5 mM probenecid) for 30 minutes at 37° C. After washing cell monolayers three times with phosphate buffered saline, loading buffer was added and the cells exposed to sets of compounds for 3 minutes at 25° C. in the FlexStation™. In all cases, each concentration of every compound was tested in at least triplicate. […] The cells were washed with phosphate buffered saline and exposed to compounds immediately, as described above.
(§1) Briefly, nonlinear analysis of the best-fit line generated by plotting the negative log of the EC50 values obtained from agonist dose-response curves, in the absence and presence of varying concentrations of antagonist, was plotted against the concentration of antagonist to give the Kb value.
Background: A change in cytosolic calcium serves as a functional read-out for many receptors and channels.

For data set [2], the target named is T1, human S1P3 receptor. The experiment in a line: [γ-35S]GTP binding assay, HEK293T membranes (agonism and Schild antagonism). Type of data set: biochemical. Set-up: expressed in transfected cells; host or cells: HEK293T, transient transfection; membranes. The note with it: -log molar concentration giving 50% of maximal [γ-35S]GTP binding; ± S.E.M.; read-out: pEC50 S1P3 (converted).
Description: (§2) The appropriate receptor plasmid DNA (encoding human S1P1, human S1P2, human S1P3, human S1P4, human S1P5, human LPA1, human LPA2 or human LPA3 receptors) is mixed with equal amounts of expression plasmids encoding human Gi2α (for S1P3, a mutated (C352F) rat Gi2α is used), cow β1, and cow γ2 proteins, and these DNAs are used to transfect monolayers of HEK293T cells (where ‘T’ indicates expression of the SV-40 virus large T antigen) using the calcium phosphate precipitate method (7). After about 60 hours, cells are harvested, membranes prepared, aliquoted, and stored at −70° C. until use (8).
(§3) The [γ-^35S]GTP binding assay is performed as described previously (8). Membranes containing 1-5 μg of protein are incubated in 0.1 ml of binding buffer (in mM: HEPES/50, NaCl/100, MgCl2/10, pH 7.5) containing 5 μg of saponin, 10 μM GDP, 0.1 nM [γ-^35S]GTP (1200 Ci/mmol), and indicated lipid(s) for 30 min at 30° C. and collected using a Brandel Cell Harvester (Gaithersburg, Md.). Samples are then analyzed for bound radionuclide.
as §1
(§4) Statistical Analysis. The EC50 and IC50 values for all dose response curves were determined by nonlinear regression analysis of all data using the Graphpad Prism© program. The error associated with the data collected is reported as the standard error of the mean (S.E.M).

In data set [3] the target is T2, human S1P1 receptor (Homo sapiens, UniProt P21453). The description is as above. The class given is biochemical. Details: expressed in transfected cells; host or cells: HEK293T, transient transfection; membranes. The following applies: -log molar concentration giving 50% of maximal [γ-35S]GTP binding; ± S.E.M.; read-out: pEC50 S1P1 (converted).
T2 sequence (P21453 whole entry): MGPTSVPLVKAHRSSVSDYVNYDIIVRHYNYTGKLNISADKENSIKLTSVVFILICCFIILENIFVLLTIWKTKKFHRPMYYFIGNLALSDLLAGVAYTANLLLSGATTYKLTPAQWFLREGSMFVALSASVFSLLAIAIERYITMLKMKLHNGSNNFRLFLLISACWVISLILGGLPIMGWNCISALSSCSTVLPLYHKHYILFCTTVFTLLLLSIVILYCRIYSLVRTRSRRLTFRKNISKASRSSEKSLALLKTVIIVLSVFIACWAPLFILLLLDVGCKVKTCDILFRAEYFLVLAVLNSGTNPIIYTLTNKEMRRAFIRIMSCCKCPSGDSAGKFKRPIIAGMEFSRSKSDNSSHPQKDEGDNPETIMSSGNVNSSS
Description: as §2, §3, §1, §4

Data set [4] has as its target T1, human S1P3 receptor. Briefly: [32P]S1P binding assay, HEK293T membranes. Details: expressed in transfected cells; host or cells: HEK293T, transient transfection; membranes. The note with it: read-out: pKi S1P3 (converted). Here is the method: (§5) [^32P]-S1P was prepared by incubating sphingosine and [γ-^32P]ATP with cell lysate from HEK293T cells transiently transfected with human sphingosine kinase type 2 DNA. The 200 μl reaction contained 0.025 mM sphingosine, 1 mCi [γ-^32P]ATP (7000 Ci/mmol) and kinase buffer (in mM: Mg(C2H3O2)2 (in 50 mM Tris, pH 7.5)/10, NaF/10, and semicarbizide/2). The reaction was initiated by the addition of 20 μg of cell lysate and incubated at 37° C. for at least 30 minutes. […] The organic layer was isolated and the extraction procedure repeated two additional times with the remaining aqueous fraction. The combined organic fractions were dried under a stream of nitrogen gas and resuspended in aqueous 0.1% fatty acid free BSA.
(§6) Bound ligand was separated from free ligand by rapid filtration and analyzed in a liquid scintillation counter.
as §4

In data set [5] the target is T2, human S1P1 receptor. The experiment in a line: [32P]S1P binding assay, HEK293T membranes. The note with it: read-out: pKi S1P1 (converted). Details: expressed in transfected cells; host or cells: HEK293T, transient transfection; membranes. The procedure:
as §5, §6, §4

Another data set has as its target T3, human S1P4 receptor (Homo sapiens, UniProt O95977).
T3 construct: expressed in transfected cells; host or cells: HEK293T, transient transfection; membranes
T3 sequence (O95977 1-384): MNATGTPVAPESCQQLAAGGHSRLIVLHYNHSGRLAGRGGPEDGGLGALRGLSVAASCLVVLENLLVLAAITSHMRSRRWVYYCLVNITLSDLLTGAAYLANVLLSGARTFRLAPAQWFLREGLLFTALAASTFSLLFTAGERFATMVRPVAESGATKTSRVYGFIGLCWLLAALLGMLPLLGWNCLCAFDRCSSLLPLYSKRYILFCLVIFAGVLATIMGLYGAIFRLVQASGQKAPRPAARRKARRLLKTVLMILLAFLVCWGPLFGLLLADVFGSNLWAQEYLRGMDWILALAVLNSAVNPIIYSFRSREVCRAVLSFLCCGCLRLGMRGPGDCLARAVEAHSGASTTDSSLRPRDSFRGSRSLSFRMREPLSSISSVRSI
Briefly: [γ-35S]GTP binding assay, HEK293T membranes. The class given is biochemical. The note with it: -log molar concentration giving 50% of maximal [γ-35S]GTP binding; ± S.E.M.; read-out: pEC50 S1P4 (converted).
Description: as §2, §3, §4

Data set [6] is described as follows: Metabolic stability in biologic systems (mouse). The following applies: in a mouse. Type of data set: in vivo.
The subject of another data set is S1P receptors. Briefly: Antagonist properties (potency, S1P receptor type selectivity) compared with VPC23019.

T1 sequence (Q99500 whole entry): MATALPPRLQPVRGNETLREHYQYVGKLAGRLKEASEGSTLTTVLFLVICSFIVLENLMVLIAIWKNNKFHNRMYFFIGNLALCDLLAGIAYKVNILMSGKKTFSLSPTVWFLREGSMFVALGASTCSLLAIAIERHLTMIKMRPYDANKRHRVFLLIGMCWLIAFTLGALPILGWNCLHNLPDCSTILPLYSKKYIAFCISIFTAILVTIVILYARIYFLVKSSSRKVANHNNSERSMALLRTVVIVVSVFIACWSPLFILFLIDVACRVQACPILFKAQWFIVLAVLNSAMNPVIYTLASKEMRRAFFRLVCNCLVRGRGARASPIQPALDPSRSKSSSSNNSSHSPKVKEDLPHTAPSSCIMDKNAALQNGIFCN

As to `CCCCCCCCCCCCC/C=C/[C@@H](O)[C@@H](N)COP(=O)(O)O` [Compound S1P, Sphingosine 1-phosphate, reference compound], the “Calcium mobilization by compound alone” value on human S1P3 receptor [1] was “dose-dependent calcium mobilization was observed”. In addition, the results for the EC50 on human S1P3 receptor [2], on human S1P1 receptor [3] and at human S1P4 receptor were 2.24 nM, 4.07 nM and 155 nM, respectively. In addition, the Ki at human S1P3 receptor [4] was 7.59 nM; on human S1P1 receptor [5] it was 1.1 nM.
`CCCCCCCCc1cccc(NC(=O)[C@H](N)CCP(=O)(O)O)c1` [VPC44116]: the “Metabolic stability in biologic systems” value in data set [6] is “at least 18 hours”. Besides, the “Antagonist properties (potency, S1P receptor type selectivity) versus VPC23019” value in the data set on S1P receptors is “indistinguishable from VPC23019”.
